Assay results: US7414042B2, “Method and composition for selectively inhibiting melanoma” (The Board of Trustees of The University of Illinois, priority 1995, dated 2008)
In brackets after ≈: the same amount, converted by molar mass. Read-outs that look alike come from different tables or passages of the source.

Columns and labels:
[1] = system: MEL-2 (melanoma); test: Cytotoxicity against cultured human melanoma cells (SRB); assay type: cell-based; settings: Homo sapiens, MEL2, 72 h, three days incubation, SRB; Table 1 and text; read-out: ED50 MEL-2
Description: (§1) The plates were incubated for three days. […] Dose response studies were performed to generate ED50 values.

[2] = system: BC-1 (breast); test: Cytotoxicity against cultured human cancer cells (SRB); assay type: cell-based; settings: Homo sapiens, 72 h; three days incubation, SRB; read-out: ED50 BC-1
Description: as §1

[3] = system: LNCaP (prostate); test: as above; assay type: cell-based; settings: Homo sapiens, LNCaP, 72 h; three days incubation, SRB; read-out: ED50 LNCaP
Description: as §1

[4] = system: U373 (glioma); test: as above; assay type: cell-based; settings: Homo sapiens, U373 MG, 72 h; three days incubation, SRB; read-out: ED50 U373
Description: as §1

[5] = system: COL-2 (colon); test: as above; assay type: cell-based; settings: Homo sapiens, Col2, 72 h; three days incubation, SRB; read-out: ED50 COL-2
Description: as §1

[6] = system: KB (human oral epidermoid carcinoma); test: as above; assay type: cell-based; settings: Homo sapiens, 72 h; three days incubation, SRB; Table 1; read-out: ED50 KB
Description: as §1

[7] = system: LU-1 (lung); test: as above; assay type: cell-based; settings: Homo sapiens, 72 h, three days incubation, read-out: ED50 LU-1
Description: as §1

[8] = system: ZR-75-1 (breast); test: as above; assay type: cell-based; settings: Homo sapiens, ZR-75-1, 72 h; three days incubation, SRB; read-out: ED50 ZR 75-1
Description: as §1

[9] = system: HT-1080 (sarcoma); test: as above; assay type: cell-based; settings: Homo sapiens, HT-1080, 72 h, three days incubation, read-out: ED50 HT-1080
Description: as §1

[10] = system: A431 (squamous cells); test: as above; assay type: cell-based; settings: Homo sapiens, A-431, 72 h; three days incubation, SRB; read-out: ED50 A431
Description: as §1

[11] = system: human melanoma and nonmelanoma cancer cell lines
Description: (§2) In the following Table 1, the extracted betulinic acid and the other pure compounds were tested for cycotoxity against the following cultured human cell lines: A431 (squamous cells), BC-1 (breast), COL-2 (colon), HT-1080 (sarcoma), KB (human oral epidermoid carcinoma), LNCaP (prostate), LU-1 (lung), MEL-2 (melanoma), U373 (glioma) and ZR-75-1 (breast).
(§3) Cytotoxicity of the crude extracts and purified compounds was determined in a number of cultured human cancer cell lines. The cells were cultured in appropriate media and under standard conditions. To maintain logarithmic growth, the media were changed 24 hours prior to cytotoxic assays. On the day of the assay, the cells were harvested by trypsinization, counted, diluted in media, and added to 96-well plates containing test compounds dissolved in DMSO; the final DMSO concentration was 0.05%.
(§4) The plates were incubated for three days. Following the incubation period, the cells were fixed and stained with sulforhodamine B (SRB) dye. The bound dye was liberated with Tris base, and the OD515 was measured on an ELISA reader. The growth of the betulinic acid-treated cells was determined by the OD515 values, and the growth was compared to the OD515 values of DMSO-treated control cells. Dose response studies were performed to generate ED50 values.
(§5) The biological evaluation of the derivatives focused on the activity against human melanoma cell lines. In particular, the following betulinic acid derivatives were prepared and tested for cytotoxicity profile against human melanoma cell lines and against a number of selected nonmelanoma cell lines.

[12] = system: human melanoma and nonmelanoma cancer cell lines; test: Cytotoxicity profile across the panel of human cancer cell lines; settings: Table 1 panel
Description: as §2, §3, §4, §5

SMILES | IC50 [1] [µg/mL] | IC50 [2] [µg/mL] | IC50 [3] [µg/mL] | IC50 [4] [µg/mL] | IC50 [5] [µg/mL] | IC50 [6] [µg/mL] | IC50 [7] [µg/mL] | IC50 [8] [µg/mL] | IC50 [9] [µg/mL] | IC50 [10] [µg/mL] | cytotoxic activity profile, cell-type selectivity [11] | cytotoxic activity profile, cell-type selectivity [12]
Cc1c2ccncc2c(C)c2c1[nH]c1ccccc12 [Ellipticine] | 0.9 (≈ 3.65 µM) | 0.2 (≈ 0.812 µM) | 0.8 (≈ 3.25 µM) | 1.6 (≈ 6.5 µM) | 0.3 (≈ 1.22 µM) | 0.04 (≈ 0.162 µM) | 0.02 (≈ 0.0812 µM) | 0.9 (≈ 3.65 µM) | 1.8 (≈ 7.31 µM) | 0.5 (≈ 2.03 µM) | relatively intense, nonselective cytotoxic activity | –
CC[C@]1(O)C[C@@H]2CN(CCc3c([nH]c4ccccc34)[C@@](C(=O)OC)(c3cc4c(cc3OC)N(C)[C@H]3[C@@](O)(C(=O)OC)[C@H](OC(C)=O)[C@]5(CC)C=CCN6CC[C@]43[C@@H]65)C2)C1 [Vinbiastine, vinblastine] | 0.01 (≈ 0.0123 µM) | 0.06 (≈ 0.074 µM) | 0.1 (≈ 0.123 µM) | 1.1 (≈ 1.36 µM) | 0.01 (≈ 0.0123 µM) | 0.04 (≈ 0.0493 µM) | 0.02 (≈ 0.0247 µM) | 0.3 (≈ 0.37 µM) | 0.02 (≈ 0.0247 µM) | 0.05 (≈ 0.0617 µM) | – | relatively intense, nonselective cytotoxic activity
